Test results published in US20040067952A1, “Method and composition for treatment of cancer” (priority 2001, published 2004).
Read-outs that look alike come from different tables or passages of the source.

Assays:
HUH-7 = experiment: [3H]Thymidine incorporation assay, HUH-7; type: cell-based; conditions: Homo sapiens, 5 days, read-out: % inhibition of [3H] thymidine incorporation (compared to control)
Procedure: (§1) Method: [^3H]Thymidine incorporation assay was employed to study the effect of clofazimine on cell proliferation. Here, adherent cells (5/000-10/000) were plated into 24-well Corning tissue culture dishes and exposed to culture medium (MEM 5% FBS) containing the vehicle or different concentrations of clofazimine (10^-9 to 10^-5 moles per liter). For Novikoff which is a detached rat cell line, 2000 cells were suspended in 2 ml of DMEM (5%FBS) and kept under the same condition as for attached cells. Media were replaced with fresh media on alternate days. […] The amount of radioactivity incorporated was determined using β-scintillation counter (18). Results are presented as the actual counts per minute against the concentration of the drug used in the culture media or as % inhibition (reduction in thymidine incorporation compared to controls). Treatment of different liver cancer cell lines, HUH-7, HepG2, SKHEP-1, Hep3-B (human cell lines) and Novikoff (rat cell line) with clofazimine led to dose-dependent inhibition of [3H]thymidine incorporation by these cells (Table 1 and FIG. 1). Values represent mean±s.e.m of % inhibition of [3H] thymidine incorporation (compared to control) for each cell line when treated for 5 days with different concentrations of clofazimine.

HepG2 = experiment: [3H]Thymidine incorporation assay, HepG2; type: cell-based; conditions: Homo sapiens, 5 days, read-out: % inhibition of [3H] thymidine incorporation (compared to control)
Procedure: as §1

SKHEP-1 = experiment: [3H]Thymidine incorporation assay, SKHEP-1; type: cell-based; conditions: Homo sapiens, SK-HEP1, 5 days, read-out: % inhibition of [3H] thymidine incorporation (compared to control)
Procedure: as §1

Hep3-B = experiment: [3H]Thymidine incorporation assay, Hep3-B; type: cell-based; conditions: Homo sapiens, Hep3B, Hep3-β, 5 days, read-out: % inhibition of [3H] thymidine incorporation (compared to control)
Procedure: as §1

Novikoff = experiment: [3H]Thymidine incorporation assay, Novikoff; type: cell-based; conditions: Rattus norvegicus, 5 days, read-out: % inhibition of [3H] thymidine incorporation (compared to control)
Procedure: as §1

LOVO = experiment: [3H]thymidine incorporation, LOVO colorectal cancer cells; type: cell-based, human; conditions: 5 day treatment
Procedure: FIG. 8: [3H]thymidine incorporation expressed as counts per minute in LOVO cells (colorectal cancer cell line) treated in culture for 5 days with different concentrations of clofazimine.
Method: [^3H]Thymidine incorporation assay was employed to study the effect of clofazimine on cell proliferation. Here, adherent cells (5/000-10/000) were plated into 24-well Corning tissue culture dishes and exposed to culture medium (MEM 5% FBS) containing the vehicle or different concentrations of clofazimine (10^−9 to 10^−5 moles per liter). For Novikoff which is a detached rat cell line, 2000 cells were suspended in 2 ml of DMEM (5%FBS) and kept under the same condition as for attached cells. Media were replaced with fresh media on alternate days. At the end of the treatment period (5-10 days), cell cultures were assayed for thymidine incorporation by the addition of 0.5 μCi of [3H]thymiydine to each well for the last 4 h of culture. The amount of radioactivity incorporated was determined using β-scintillation counter (18). Results are presented as the actual counts per minute against the concentration of the drug used in the culture media or as % inhibition (reduction in thymidine incorporation compared to controls). […]

HT-29 = experiment: [3H]thymidine incorporation, HT-29 colorectal cancer cells; type: cell-based; conditions: Homo sapiens, 120 h; HT-29, 1 μM clofazimine, 5 day treatment period; read-out: inhibition of cell proliferation
C-170 = experiment: [3H]thymidine incorporation, C-170 colorectal cancer cells; type: cell-based; conditions: Homo sapiens, C170, 120 h; C-170, 1 μM clofazimine, 5 day treatment period; read-out: inhibition of cell proliferation
Procedure: Method: [^3H]Thymidine incorporation assay was employed to study the effect of clofazimine on cell proliferation. Here, adherent cells (5/000-10/000) were plated into 24-well Corning tissue culture dishes and exposed to culture medium (MEM 5% FBS) containing the vehicle or different concentrations of clofazimine (10^−9 to 10^−5 moles per liter). For Novikoff which is a detached rat cell line, 2000 cells were suspended in 2 ml of DMEM (5%FBS) and kept under the same condition as for attached cells. Media were replaced with fresh media on alternate days. At the end of the treatment period (5-10 days), cell cultures were assayed for thymidine incorporation by the addition of 0.5 μCi of [3H]thymiydine to each well for the last 4 h of culture. The amount of radioactivity incorporated was determined using β-scintillation counter (18). Results are presented as the actual counts per minute against the concentration of the drug used in the culture media or as % inhibition (reduction in thymidine incorporation compared to controls). Treatment of different liver cancer cell lines, HUH-7, HepG2, SKHEP-1, Hep3-B (human cell lines) and Novikoff (rat cell line) with clofazimine led to dose-dependent inhibition of [3H]thymidine incorporation by these cells (Table 1 and FIG. 1).

[1] = Solubility and stability in lipiodol; type: physicochemical
[2] = reference 9; cited from earlier work
HCC = HCC patients, cited from earlier work

## CC(C)/N=c1/cc2n(-c3ccc(Cl)cc3)c3ccccc3nc-2cc1Nc1ccc(Cl)cc1 [clofazimine, 3-(4-chloroanilino)-10-(4-chlorophenyl)-2, 10-dihydro-2-(isopropylimino)-phenazine]
HUH-7; HUH-7, clofazimine 0.01 μM
  inhibition at 0.01 µM: 0%
HUH-7; HUH-7, clofazimine 0.1 μM
  inhibition at 0.1 µM: 38.3 ± 7.2%
HUH-7; HUH-7, clofazimine 0.5 μM
  inhibition at 0.5 µM: 51.1 ± 3.4%
HUH-7; HUH-7, clofazimine 1.0 μM
  inhibition at 1 µM: 88.9 ± 1.1%
HUH-7; HUH-7, clofazimine 5.0 μM
  inhibition at 5 µM: 96.7 ± 0.9%
HepG2; HepG2, clofazimine 0.01 μM
  inhibition at 0.01 µM: 21 ± 1.9%
HepG2; HepG2, clofazimine 0.1 μM
  inhibition at 0.1 µM: 38.2 ± 2.2%
HepG2; HepG2, clofazimine 0.5 μM
  inhibition at 0.5 µM: 52.9 ± 4.7%
HepG2; HepG2, clofazimine 1.0 μM
  inhibition at 1 µM: 75.6 ± 2.7%
HepG2; HepG2, clofazimine 5.0 μM
  inhibition at 5 µM: 92.4 ± 1.9%
SKHEP-1; SKHEP-1, clofazimine 0.01 μM
  inhibition at 0.01 µM: 30.3 ± 2.9%
SKHEP-1; SKHEP-1, clofazimine 0.1 μM
  inhibition at 0.1 µM: 62.7 ± 7.1%
SKHEP-1; SKHEP-1, clofazimine 0.5 μM
  inhibition at 0.5 µM: 69 ± 3.2%
SKHEP-1; SKHEP-1, clofazimine 1.0 μM
  inhibition at 1 µM: 70.9 ± 2.1%
SKHEP-1; SKHEP-1, clofazimine 5.0 μM
  inhibition at 5 µM: 97.1 ± 1.7%
Hep3-B; clofazimine 0.01 μM
  inhibition at 0.01 µM: 28.4 ± 7.4%
Hep3-B; clofazimine 0.1 μM
  inhibition at 0.1 µM: 62.3 ± 3.1%
Hep3-B; clofazimine 0.5 μM
  inhibition at 0.5 µM: 91.6 ± 1.1%
Hep3-B; clofazimine 1.0 μM
  inhibition at 1 µM: 94.3 ± 0.07%
Hep3-B; clofazimine 5.0 μM
  inhibition at 5 µM: 95.4 ± 1.4%
Novikoff; clofazimine 0.01 μM
  inhibition at 0.01 µM: 0%
Novikoff; clofazimine 0.1 μM
  inhibition at 0.1 µM: 0%
Novikoff; clofazimine 0.5 μM
  inhibition at 0.5 µM: 11.7 ± 3.3%
Novikoff; clofazimine 1.0 μM
  inhibition at 1 µM: 18.9 ± 2.9%
Novikoff; clofazimine 5.0 μM
  inhibition at 5 µM: 42.7 ± 4.1%
LOVO
  inhibition of proliferation as measured by [3H]thymidine incorporation: profound inhibition of proliferation
HT-29
  inhibition at 1 µM: > 70%
C-170
  inhibition at 1 µM: > 70%
[1]
  solubility in lipiodol: highly soluble
  stability in lipiodol: stable
[2]
  log p (octanol/water): 7.4
HCC; clofazimine alone, Falkson et al.
  objective response: no objective response
HCC; oral clofazimine, 3/30, Ruff et al.
  objective response: 10%
HCC; oral clofazimine, 13/30, for up to 20 months, Ruff et al.
  stabilization of the disease: 43%
